Columns and labels:
hAChE = target: T1, hAChE (Homo sapiens, UniProt P22303); test: biochemical; details: mean ± standard deviation; read-out: IC50 ± SD AChE
T1 construct: purchased BioVision ('Bio Vision, Egypt' [sic]; address 155 S. Milpitas Blvd., Milpitas, CA) K197-100
Protocol: The synthesized compounds were assayed to determine their ability to inhibit hAChE using (K197-100, Bio Vision, Egypt)1. A 96-well plate was used by applying the spectroscopic method of Ellman1, and […]
The compounds were dissolved in a small amount of DMSO to obtain a concentration range of 0.01-10 μM. Each well contained 160 μl of dithiobis-(2-nitrobenzoic acid) (Ellman's reagent, DTNB), 10 μl of the tested compound and 50 μl hAChE solution, while Blank wells contained 160 μl DTNB, 10 μl DMSO, and 50 μl buffer (1 M, pH=8.0, Tris-HCl) . 100% ChE activity (100% activity) contained 160 μl DTNB, 2 μl DMSO, 8 μl buffer and 50 μl hAChE. After 5 min of incubation at 25 […]
Two time points (t1 and t2) in the linear range of the plot were chosen and the corresponding values for the absorbance (OD1 and OD2) were obtained.
The percentage of relative inhibition was calculated from the following equation:
% Relative Inhibition = Slope of[ EC]−Slope of [S] /Slope of[EC ] X100
% Relative Activity = Slope of [S] /Slope of [EC] X100
Where: S, is Sample Screen; EC, is Enzyme Control. […]

Beta-Amyloid (1–42) = target: T2, Beta-Amyloid (1–42) (Homo sapiens, UniProt P05067); test: biochemical; details: Aβ aggregation, Thioflavin T; mean ± standard deviation; read-out: IC50 ± SD Aβ42 inhibition
T2 construct: SensoLyte® Thioflavin T Beta-Amyloid (1–42) Aggregation Kit; purchased ANASPEC Inc., Fremont, CA, USA
T2 sequence (P05067 672-713): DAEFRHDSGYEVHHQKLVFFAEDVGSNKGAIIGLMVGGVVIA
Protocol: The β-amyloid aggregation inhibition was measured using the fluorometric SensoLyte® Thioflavin T Beta-Amyloid (1–42) Aggregation Kit (ANASPEC Inc., Fremont, CA., USA) according to the manufacturer's instructions. […]
2. In Vitro Amyloid-β Aggregation Assay
Amyloid-β (1–42) aggregation was measured using the SensoLyte ® Thioflavin T β-Amyloid aggregation kit (AnaSpec, Fremont, CA, USA) 2, according to the manufacturer’s instructions. The assay is based on the property of the Thioflavin T dye, the fluorescence of which increases when it is bound to aggregates of amyloid-β (1 –42) peptides. Briefly, Thioflavin T was dissolved in assay buffer [10 mM Phosphate/150 mM NaCl (pH=8.0)] and used at a concentration of 100 μM. Samples were dissolved in assay buffer, 5 μL of the sample and 85 μL of amyloid-β (1–42) were mixed, followed by the addition of 10 μL of 2mM Thioflavin T.
Thioflavin T fluorescence was measured at intervals of 10 min for 2 h, with an excitation /emission =440 […]
All fluorescence readings are expressed in relative fluorescence units (RFU).
Morin was used as a positive control. Experiments were performed in triplicate and averaged, and the percentage of inhibition of amyloid-β aggregation was calculated according to the following equation:
% Relative Inhibition = (RFU of PC - RFU of S)/ ([…]) x 100
Where: PC, is the Peptide Positive Control or Solvent Control; S, is Sample Screen.
IC50 was generated by plotting the values of percent inhibition against their corresponding logarithmic concentration. Best fitted line was determined and IC50 was calculated from its equation.

T1 sequence (P22303 32-614): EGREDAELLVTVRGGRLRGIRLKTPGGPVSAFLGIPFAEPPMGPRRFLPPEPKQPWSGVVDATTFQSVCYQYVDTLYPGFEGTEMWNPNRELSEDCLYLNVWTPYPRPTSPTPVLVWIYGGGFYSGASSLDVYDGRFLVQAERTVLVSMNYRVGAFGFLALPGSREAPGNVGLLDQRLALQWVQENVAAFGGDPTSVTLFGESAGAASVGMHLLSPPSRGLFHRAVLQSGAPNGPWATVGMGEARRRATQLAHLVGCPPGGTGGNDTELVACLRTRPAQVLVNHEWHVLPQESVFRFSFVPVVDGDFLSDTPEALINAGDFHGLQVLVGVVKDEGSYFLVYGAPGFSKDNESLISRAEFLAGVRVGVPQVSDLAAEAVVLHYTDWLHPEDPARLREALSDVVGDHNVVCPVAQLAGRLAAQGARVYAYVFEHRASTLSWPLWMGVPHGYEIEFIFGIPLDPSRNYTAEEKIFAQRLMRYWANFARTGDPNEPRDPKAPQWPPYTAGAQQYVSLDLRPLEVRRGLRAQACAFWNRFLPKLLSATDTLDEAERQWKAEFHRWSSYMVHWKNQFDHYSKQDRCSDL

| Compound | IC50 (hAChE) | IC50 (Beta-Amyloid (1–42)) |
| --- | --- | --- |
| CCOC(=O)c1ccc(OCc2cn(Cc3ccc(O)c(OC)c3)nn2)c(OC)c1 [Compound 4, 4-((1-(3-methoxy-4-hydroxybenzyl)-1H-1,2,3-triazol-4-yl)methoxy)-3-methoxy-ethyl benzoate] | 2110 ± 120 nM | 1590 ± 80 nM |
| COc1cc(Cn2cc(COc3ccc(C=CC=O)cc3OC)nn2)ccc1O [Compound 3, 4-((1-(3-methoxy-4-hydroxybenzyl)-1H-1,2,3-triazol-4-yl)methoxy)-3-methoxyphenyl acrylaldehyde] | 5530 ± 280 nM | 2860 ± 140 nM |
| COc1cc(/C=C/C(=O)OCc2cn(Cc3ccc(O)c(OC)c3)nn2)ccc1O [Compound 9, (E)-(1-(4-hydroxy-3-methoxybenzyl)-1H-1,2,3-triazol-4-yl)methyl 3-(4-hydroxy-3 methoxyphenyl)acrylate] | 470 ± 20 nM | 310 ± 20 nM |
| COc1cc(Cn2cc(COc3ccc(C=CC(=O)O)cc3OC)nn2)ccc1O [Compound 7, 4-((1-(3-methoxy-4-hydroxybenzyl)-1H-1,2,3-triazol-4-yl)methoxy)-3-methoxyphenyl acrylic acid] | 10600 ± 530 nM | 4480 ± 220 nM |
| COc1cc(Cn2cc(COC(=O)c3ccc(O)c(OC)c3)nn2)ccc1O [Compound 8, (1-(4-hydroxy-3-methoxybenzyl)-1H-1,2,3-triazol-4-yl)methyl 4-hydroxy-3-methoxy benzoate] | 1200 ± 60 nM | 950 ± 50 nM |
| CCOC(=O)C=Cc1ccc(OCc2cn(Cc3ccc(O)c(OC)c3)nn2)c(OC)c1 [Compound 6, ethyl 4-((1-(3-methoxy-4-hydroxybenzyl)-1H-1,2,3-triazol-4-yl)methoxy)-3-methoxyphenyl acrylate] | 2520 ± 130 nM | 3060 ± 150 nM |
| C=CCc1ccc(OCc2cn(Cc3ccc(O)c(OC)c3)nn2)c(OC)c1 [Compound 2, 4-((4-((4-allyl-2-methoxyphenoxy)methyl)-1H-1,2,3-triazol-1-yl)methyl)-2-methoxyphenol] | 26800 ± 1350 nM | 22700 ± 1140 nM |
| COc1cc(Cn2cc(COc3ccc(C(=O)O)cc3OC)nn2)ccc1O [Compound 5, 4-((1-(3-methoxy-4-hydroxybenzyl)-1H-1,2,3-triazol-4-yl)methoxy)-3-methoxybenzoic acid] | 2110 nM | 1480 ± 70 nM |
| COc1cc(Cn2cc(COc3ccc(C=O)cc3OC)nn2)ccc1O [Compound 1, 4-((1-(3-methoxy-4-hydroxybenzyl)-1H-1,2,3-triazol-4-yl)methoxy)-3-methoxybenzaldehyde] | 14200 ± 720 nM | 4850 ± 240 nM |

From PMC9850456, “Click-designed vanilloid-triazole conjugates as dual inhibitors of AChE and Aβ aggregation” (RSC Advances, 2023)
